# Data taken from the supplement of paper PMC10307832.
# Compound: CCN1CCN(c2ccc(Nc3cc(N(C)C(=O)Nc4c(Cl)c(OC)cc(OC)c4Cl)ncn3)cc2)CC1 [BGJ398] + CC(=O)c1c(C)c2cnc(Nc3ccc(N4CCNCC4)cn3)nc2n(C2CCCC2)c1=O [Palbociclib] (partner 0.5 µM)
# Assay: relative viability (nuclei count vs DMSO), 5 days (fraction); higher = more cells survive
# Conditions: first compound 0.01 µM
# Summary of the method: (§1)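 Relative viability is defined as nuclei in treated wells over nuclei in vehicle wells. Duplicate plates were run and medians reported. Lung cancer cell lines in 1536-well plates were dosed by pin tool one day after seeding, with one drug or with a fixed anchor-drug dose plus five library-drug doses (not always all listed) in √10 steps, and nuclei were counted after 5 days.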
row,Cell Line,relative viability
1,EKVX,0.436
2,LC-2-ad,0.477
3,NCI-H1944,0.29
4,NCI-H1975,0.575
5,RERF-LC-KJ,1.13
6,ABC-1,0.647
7,NCI-H358,0.139
8,NCI-H650,0.313
9,PC-3 [JPC-3],0.591

# Same assay, conditions: first compound 0.03162 µM
row,Cell Line,relative viability
1,EKVX,0.291
2,LC-2-ad,0.516
3,NCI-H1944,0.333
4,NCI-H1975,0.678
5,RERF-LC-KJ,0.781
6,ABC-1,0.593
7,NCI-H358,0.145
8,NCI-H650,0.375

# Same assay, conditions: first compound 0.1 µM
row,Cell Line,relative viability
1,EKVX,0.384
2,LC-2-ad,0.5
3,NCI-H1944,0.347
4,NCI-H1975,0.672
5,RERF-LC-KJ,1.17
6,ABC-1,0.584
7,NCI-H358,0.133
8,NCI-H650,0.321
9,PC-3 [JPC-3],0.522

# Same assay, conditions: first compound 0.3162 µM
row,Cell Line,relative viability
1,EKVX,0.359
2,LC-2-ad,0.524
3,NCI-H1944,0.337
4,NCI-H1975,0.546
5,RERF-LC-KJ,1.11
6,NCI-H358,0.13
7,NCI-H650,0.379

# Same assay, conditions: first compound 1 µM
row,Cell Line,relative viability
1,EKVX,0.394
2,LC-2-ad,0.499
3,NCI-H1944,0.344
4,NCI-H1975,0.417
5,RERF-LC-KJ,1.23
6,ABC-1,0.945
7,NCI-H358,0.145
8,NCI-H650,0.315
9,PC-3 [JPC-3],0.569

# Compound: CCN1CCN(c2ccc(Nc3cc(N(C)C(=O)Nc4c(Cl)c(OC)cc(OC)c4Cl)ncn3)cc2)CC1 [BGJ398] + O=C(c1cc(Cc2n[nH]c(=O)c3ccccc23)ccc1F)N1CCN(C(=O)C2CC2)CC1 [Olaparib] (partner 8 µM)
# Assay: as above
# Conditions: first compound 0.01 µM
# Summary of the method: as §1
row,Cell Line,relative viability
1,EKVX,0.872
2,LC-2-ad,0.766
3,NCI-H1944,0.432
4,NCI-H1975,0.809
5,RERF-LC-KJ,0.961
6,ABC-1,0.864
7,NCI-H358,0.744
8,NCI-H650,0.358
9,PC-3 [JPC-3],1.12

# Same assay, conditions: first compound 0.03162 µM
row,Cell Line,relative viability
1,EKVX,0.884
2,LC-2-ad,0.759
3,NCI-H1944,0.416
4,NCI-H1975,0.856
5,RERF-LC-KJ,0.959
6,ABC-1,0.934
7,NCI-H358,0.622
8,NCI-H650,0.413

# Same assay, conditions: first compound 0.1 µM
row,Cell Line,relative viability
1,EKVX,0.812
2,LC-2-ad,0.694
3,NCI-H1944,0.425
4,NCI-H1975,0.887
5,RERF-LC-KJ,0.969
6,ABC-1,0.887
7,NCI-H358,0.619
8,NCI-H650,0.377
9,PC-3 [JPC-3],1.26

# Same assay, conditions: first compound 0.3162 µM
row,Cell Line,relative viability
1,EKVX,0.74
2,LC-2-ad,0.677
3,NCI-H1944,0.385
4,NCI-H1975,0.825
5,RERF-LC-KJ,0.917
6,NCI-H358,0.698
7,NCI-H650,0.375

# Same assay, conditions: first compound 1 µM
row,Cell Line,relative viability
1,EKVX,0.696
2,LC-2-ad,0.749
3,NCI-H1944,0.445
4,NCI-H1975,0.781
5,RERF-LC-KJ,0.92
6,ABC-1,0.616
7,NCI-H358,0.584
8,NCI-H650,0.365
9,PC-3 [JPC-3],1.15
